Experimental data: EP0621779B1, “INDOMETHACIN LYSINATE FOR THERAPEUTIC USE IN OPHTHALMOLOGY” (JUNG, Jean, priority 1992, dated 1993)

What was measured:
[1] = Ocular passage / ocular bioavailability after instillation of eye drops; assay type: in vivo
Protocol: Les biodisponibilités oculaires des deux formes pharmaceutiques sont équivalentes : le passage obtenu avec la solution à 0,142 % d'indométacine (du lysinate d'indométacine) est similaire à celui obtenu avec la suspension à 1 % (INDOCID®). Cette dernière constatation permet d'affirmer que le passage des collyres à travers les différentes barrières oculaires s'effectue bien par la fraction soluble et non par endocytose de microparticules.
Il faut noter également qu'au temps de prélèvement de 2 h les concentrations d'indométacine mesurées dans l'oeil traité par la solution de lysinate d'indométacine à 0,142 % d'indométacine sont supérieures à celles mesurées dans l'oeil traité par la suspension à 1 % d'indométacine; cela peut être dû à une élimination plus rapide de la forme suspension par le fluide lacrymal en raison de l'irritation oculaire provoquée par la taille des particules.
Elle augmente ensuite régulièrement pour atteindre sa valeur maximale environ 30 minutes après l'instillation (3 à 5 % de la dose instillée) et diminue finalement.

[2] = Stability of the isolated salt (storage; dry heat sterilisation of the powder); assay type: physicochemical; settings: poudre
Description: Dans un premier temps, la stabilité du lysinate d'indométacine en fonction de la température a été prouvée et les conditions de température et de durée utilisées pour la stérilisation ont été définis. Dans un deuxième temps, une étude microbiologique a permis de vérifier l'efficacité de la méthode.

[3] = Solubility in solvents (physico-chemical characters); assay type: physicochemical
Description: Les données des études spectrales (IR, UV, RNM) sont conformes à la structure définie.

Structure (SMILES)	concentration de l'indométacine dans l'humeur aqueuse ([1]; 10 minutes après l'instillation)	Tmax ([1]; in vivo, topical or ocular, humeur aqueuse, read-out: time after instillation to reach valeur maximale dans l'humeur aqueuse (converted)) [min]	passage oculaire (biodisponibilité oculaire) ([1]; solution à 0,142 % d'indométacine, compared with suspension à 1 % (INDOCID®))	concentrations d'indométacine mesurées dans l'oeil traité ([1]; temps de prélèvement de 2 h, solution à 0,142 % d'indométacine compared with suspension à 1 % d'indométacine)	stabilité dans le temps ([2]; conditions classiques de conservation)	stabilité à la stérilisation par la chaleur sèche ([2]; température supérieure à 170°C)	solubilité ([3]; dans l'acétone)	solubilité ([3]; dans l'acétonitrile)	solubilité ([3]; dans l'eau)	solubilité ([3]; dans l'éthanol)	solubilité ([3]; dans l'éther)	solubilité ([3]; dans le chloroforme)	solubilité ([3]; dans le dichlorométhane)	solubilité ([3]; dans le méthanol)
COc1ccc2c(c1)c(CC(=O)O)c(C)n2C(=O)c1ccc(Cl)cc1 [indométacine, reference compound]	pratiquement nulle	~30												
COc1ccc2c(c1)c(CC(=O)O)c(C)n2C(=O)c1ccc(Cl)cc1 [lysinate d'indométacine]			similaire	supérieures	stables dans le temps	sans être dégradé	pratiquement insoluble	totalement insoluble	soluble	totalement insoluble	totalement insoluble	pratiquement insoluble	pratiquement insoluble	soluble
